SMILES strings stand for the structures.

Series [1] in a line: Inhibition of [3H]phorbol-12,13-dibutyrate binding to mouse brain protein kinase C.
The nature of series [2]: Logarithm of water solubility was reported. The class given is ADME. The following applies: buffer.
A further series is filed under the species Mus musculus. Kind of series: Inhibition of [3H]phorbol-12,13-dibutyrate binding to mouse brain protein kinase C at 100 ug/mL.
Series [3] in a line: Inhibition of [3H]phorbol-12,13-dibutyrate binding to mouse brain protein kinase C (No inhibition at >1700 uM).
Series [4] is described as follows: Inhibition of [3H]phorbol-12,13-dibutyrate binding to mouse brain protein kinase C (calculated value from percent inhibition at 100 ug/mL).

As a reminder, the Ki is the equilibrium dissociation constant of an inhibitor or competing ligand from its target. Take `CCCCCCCCCCCCCC(=O)O[C@@H]1CC(=O)O[C@H]1CO`: in series [1], the Ki came out at 2.53 µM. The “log S” value in series [2] is -2.62 M/m3.
In the same order, the values of `CCCCCCCc1ccc(C(=O)O[C@@H]2CC(=O)O[C@H]2CO)cc1` are 3.2 µM and -2.05 M/m3.
As a reminder, the inhibition is the relative decrease from the control value, in per cent. As to `O=C1C[C@H](OC(=O)c2ccc3ccccc3c2)[C@@H](CO)O1`, the inhibition in the series listed under Mus musculus amounted to 28%.
Take `CCCCCCCCCCC(CCCC)CCCCCCC(=O)O[C@@H]1CC(=O)O[C@H]1CO` (some centres undefined): the Ki in series [1] came to 2.45 µM. For the same molecule, the “log S” value in series [2] is -6.46 M/m3.
In turn, `CCCCCCCCCCC(CCCCCCC(=O)O[C@@H]1CC(=O)O[C@H]1CO)c1ccccc1` (some centres undefined) yielded a Ki in series [1] of 1.21 µM. Moreover, in series [2], the “log S” value was -6.91 M/m3.
`CCCCCC(=O)O[C@@H]1CC(=O)O[C@H]1CO` displayed an inhibition constant (Ki) in series [1] of 188 µM. For the same molecule, the “log S” value in series [2] amounted to 1.54 M/m3.
In the series filed under Mus musculus, `O=C1C[C@H](OC(=O)c2ccc(-c3ccccc3)cc2)[C@@H](CO)O1` returned an inhibition of 6.5%.
In turn, `CCCCCCCC/C=C/CCCCCCCC(=O)O[C@@H]1CC(=O)O[C@H]1CO` came in with a Ki in series [1] of 1.33 µM. Further, the “log S” value in series [2] was -3.9 M/m3.
In the case of `CCCCCCCc1ccc(C(=O)O[C@H]2CC(=O)O[C@@H]2CO)cc1`, the affinity in series [1] corresponds to a Ki of 8.9 µM.
With `CCCCCCCCCCCCCC(=O)O[C@H]1CC(=O)O[C@@H]1CO`, affinity in series [1] was put at a Ki of 5.3 µM.
As for `CCc1ccc(C(=O)O[C@H]2CC(=O)O[C@@H]2CO)cc1`, the inhibition in the series filed under Mus musculus was determined as 21%.
`O=C1C[C@@H](OC(=O)c2cccc3ccccc23)[C@H](CO)O1` displayed an inhibitory constant (Ki) in series [1] of 23.5 µM. Further, the “log S” value in series [2] was -0.18 M/m3.
Turning to `CCCCCCCCCCCCCCCCCC(=O)O[C@@H]1CC(=O)O[C@H]1CO`, the inhibition constant (Ki) in series [1] is 8.69 µM. In addition, the “log S” value in series [2] is on record as -4.7 M/m3.
For `CC(=O)O[C@@H]1CC(=O)O[C@H]1CO`, the Ki result in series [3] was “Not Active”. In addition, the “log S” value in series [2] worked out at 3.62 M/m3.
`COc1ccc(C(=O)O[C@H]2CC(=O)O[C@@H]2CO)cc1` had an inhibition in the series listed under Mus musculus of 2%.
The molecule `CCCCCCCCCC(=O)O[C@@H]1CC(=O)O[C@H]1CO` came in with an inhibition constant Ki in series [1] of 4.06 µM. Besides, the “log S” value in series [2] is -0.54 M/m3.
`O=C(Cc1ccccc1)O[C@H]1CC(=O)O[C@@H]1CO` showed an inhibition in the series listed under Mus musculus of 29%.
Same read-out and setting: then `O=C(/C=C/c1ccccc1)O[C@H]1CC(=O)O[C@@H]1CO`, with 18.5%; and `O=C1C[C@H](OC(=O)c2ccccc2)[C@@H](CO)O1`, with 9.5%.
In the series filed under Mus musculus, `O=C1C[C@H](OC(=O)c2cccc3ccccc23)[C@@H](CO)O1` yielded an inhibition of 30%.
For the molecule `O=C1C[C@@H](OC(=O)Cc2ccccc2)[C@H](CO)O1`, the Ki in series [4] was 222 µM. Also, the “log S” value in series [2] turned out to be 1.09 M/m3.
With `CCCCCCCCCCC(C)CCCCCCC(=O)O[C@@H]1CC(=O)O[C@H]1CO` (some centres undefined), the affinity in series [1], expressed as Ki, was 2.39 µM. For the same molecule, the “log S” value in series [2] is given as -4.9 M/m3.

Values taken from ChEMBL document CHEMBL1149940, “Conformationally constrained analogues of diacylglycerol. 6. Changes in PK-C binding affinity for 3-O-acyl-2-deoxy-L-ribonolactones bearing different acyl chains” (Bioorg Med Chem Lett, 1994).
